Patent publication US6630583B1, “Antibiotics and methods of using the same” (priority 1998, dated 2003)

Tests used:
[1] = tested on: T4 strain (which encodes the T4 type Vex2 receptor); assay: Killing in vitro by synthetic R6 peptide; format: cell-based, pneumococcus; conditions: synthetic R6 peptide added to a T4 strain
From the text: Clinical isolates were sequenced and a predominance of the R6 type amino acid sequence for the P27 peptide and of the Type 4 amino acid sequence for the Vex2 transporter was found. Out of fourteen isolates that were screened for Vex2, twelve had the Type 4 allele and only two had the R6 type allele. Eleven of the fourteen isolates were also screened for the P27 peptide. Nine were of the R6 type P27 allele (SEQ ID NO:60) and only two were of the Type 4 P27 allele. Thus, most of the isolates examined encoded an R6 type peptide (SEQ ID NO:60) and a T4 type Vex transporter. Importantly, two of the three tolerant strains encoded either the R6 type P27 peptide and the R6 type Vex2, or alternatively, the T4 type P27 peptide and the T4 type Vex2 receptor indicating an over-representation of these “matching” combinations in tolerant strains. Furthermore, isolates encoding a mix of R6/T4 type P27 peptide/Vex2 receptor were more susceptible to being killed in vitro, i.e. when the synthetic R6 peptide was added to a T4 strain (which encodes the T4 type Vex2 receptor) there was about 10-20% more bioactivity. Thus, genotype combinations comprising the R6 type P27 peptide and the R6 type Vex2 receptor or the T4 type P27 peptide and the T4 type Vex2 receptor may facilitate the tolerant phenotype. […]

[2] = tested on: clinical pneumococcal isolate; assay: Rabbit model of pneumococcal meningitis; format: in vivo; conditions: single intrathecal injection of 5 mg/kg, over 8 hours
Protocol: Rabbit model of pneumococcal meningitis: Pneumococcal meningitis was established according to a standard protocol [Tauber and Zwahlen, Methods Enzymol., 235:92-106 (1994)]. After withdrawal of CSF (300 μl), 10^4 bacteria of a vancomycin tolerant clinical serotype 23 isolate (RNET05) in 200 μl saline was introduced intracisternally in all animals. The rabbits in group one received no treatment, group two received vancomycin (60 mg/kg) six hours after infection: group three received a combination of vancomycin (60 mg/kg) and P27 (4 mg/kg) six hours after infection and group four received P27 (4 mg/kg) six hours after infection. At six hour intervals. CSF (200 μl) was withdrawn and tested for bacterial and leukocyte density.

[3] = tested on: leucine deprived R6 cells; assay: Stringent response: lysis after leucine deprivation; format: cell-based, S. pneumoniae; conditions: 10×MIC of penicillin or vancomycin, 0.2 mM P27, or combination
Protocol: P27 and the stringent response mechanism: The stringent response is believed to prevent the death pathway. To clarify the relationship of the stringent response to P27 activity, protein synthesis of R6 was inhibited by leucine deprivation and the effect of P27 was monitored (FIG. 19). […] The minimum concentration of penicillin required to cause penicillin dependent autolysis was equal to its MIC ([…]).

[4] = tested on: Lyt 4-4; assay: Loss of chain formation (morphology); format: cell-based, Streptococcus pneumoniae; conditions: Lyt-4-4, P27 added
From the text: Loss of chain formation is a measure of antibacterial activity independent of autolysin.
Strains of pneumococcus that are tolerant to penicillin, such as Lyt 4-4, grow in long chains as compared to the diplococcal morphology of wild type pneumococci. FIG. 6A illustrates these chains, which extend to 30-50 bacteria in length.
P27 is capable of triggering different autolytic pathways: To identify the relationship between P27 and the activation of the autolysin LytA, the bactericidal effect of the peptide on the pneumococcal mutant Lyt-4-4 (which is deficient in the major autolysin), was investigated. […] Compared to the diplococcal morphology of wild type pneumococci, pneumococci lacking an active autolysin grow in long chains.

[5] = tested on: autolysin deficient strain Lyt 4-4; assay: Growth and killing of autolysin deficient strain; format: cell-based, Streptococcus pneumoniae; conditions: compared with R6
Protocol: The addition of the additives were made at time “0” hours. The strain of bacteria cultured was the Lyt-4-4 strain of Streptococcus pneumoniae which harbors a mutation leading to the loss of LytA activity. The peptide having the amino acid sequence of SEQ ID NO:2 was added as indicated at a concentration of 0.1 mM. Lyt-4-4 lacks active autolysin LytA and is therefore tolerant to penicillin treatment.
(§1) Cell growth curves were performed in the presence or absence of the test reagents as specified. In short, samples were prepared as follows: 1 ml of a pneumococcus culture was placed into 10 ml of prewarmed Semisynthetic (C+Y) medium. The optical density (OD) of the bacteria was monitored at 620 nm until an OD of approximately 0.1 was reached. At this point the test reagents were administered to the samples. The cells were cultured for up to 11 hours at 37° Celsius, and the OD at 620 nm was monitored every hour. A decrease in OD 620 is indicative of cell lysis, an increase is indicative of bacterial growth. No change in optical density indicates growth inhibition.
This antibacterial effect was also demonstrable in bacteria mutated so as to prevent autolysis by point mutation in the autolysin, as in the autolysin deficient strain Lyt 4-4. […]

[6] = tested on: clinical pneumococcal isolates, which had no defect in the histidine/kinase VncS; assay: Growth of clinical isolates exposed to P27; format: cell-based, pneumococcus; conditions: 0.1 mM of P27
Protocol: To investigate if the peptide P27 was not only capable of triggering different death pathways but was in fact, obligatory, a mutant deficient in P27 was investigated for antibiotic tolerance. […] This was confirmed by Western blot analysis. After addition of 10×MIC of vancomycin, the vexcp3 mutant underwent less than 2 log kill in 4 hours in contrast to 4 log kill of the wild type (FIG. 18A). […] To exclude the possibility that tolerance of the vexp3 mutant resulted from changes in either the expression or intrinsic activity of the autolysin LytA, Western blot analysis of LytA of the vexp3 mutant was performed. […] However, exogenous autolysin from vexp3 mutant was as efficient as that from wild type pneumococcus at reconstitution of lysis of the autolysin deficient strain Lyt-4-4 (FIG. 18C). […] To investigate if this phenomenon was restricted to mutations in VncS or rather to the antibiotic tolerant phenotype, clinical pneumococcal isolates, which had no defect in the histidine/kinase VncS (verified by sequencing), were exposed to 0.1 mM of P27. […] This supports the conclusion that VncS might function as a receptor for P27.

[7] = tested on: antibiotic sensitive and LytA deficient bacteria; assay: Potentiation of the bactericidal effect of penicillin; format: cell-based, S. pneumoniae
[8] = tested on: vncS deficient mutant; assay: Antimicrobial peptide sensitivity test (growth, viability); format: cell-based, S. pneumoniae; conditions: 0.1 mM P27
Protocol: (§2) FIGS. 15A-15C show the effect of the synthetic peptide homolog P27 on induced growth inhibition. […] Cultures were in the early exponential phase of growth (10^6 cfu/ml) when treated with the synthetic peptide, P27. FIG. 15B is a block diagram showing the viability counts (after one hour) of parent strain R6, and loss of function mutants vncS, vncR, vex1, vex3, following the addition of 0.1 mM P27. R6 without the peptide is the positive control. […] Experimental conditions are the same as in FIG. 15A.
(§3) Anitmicrobial peptide sensitivity tests: Survival and autolysis rates in the presence of antimicrobial peptides were determined by exposing the parent strain R6 and the vncS deficient mutant to different concentrations (0.05 to 200 μM) of P27 or cecropin B (American Peptide Company, Sunnyvale, Calif., USA) at an OD620nm 0.05 (10^6 cfu/ml). For the disk diffusion assay, agar plates were seeded with a lawn of S. pneumoniae, Enterococcus faecalis, E. faecium, Streptococcus agalactiae, S. pyogenes or Staphylococcus aureus. The plates were incubated for 12 hours at 37° C. with a disk soaked with the synthetic P27 (2 mM). The size of the halo was determined with a ruler.

[9] = tested on: different streptococcal species and Staphylococcus aureus; assay: Disk diffusion assay; format: cell-based; conditions: disk soaked with synthetic P27 (2 mM)
Protocol: as §3

[10] = tested on: pneumococcal strain R6; assay: Cell growth curves (OD 620 nm) and viability of R6 with peptide; format: cell-based, Streptococcus pneumoniae; conditions: peptides at 100 μM added to growing R6 at OD 620 nm of 0.1
Protocol: as §1
To characterize the antibacterial activity of the peptide, pneumococcal strain R6 which is sensitive to penicillin was exposed to 0.1 mM of the peptide having the amino acid sequence of SEQ ID NO:2 at an optical density of 0.01 (bacterial density of 3×10^6 cfu/ml). Bacterial growth as measured by optical density was followed for 11 hours and viability was assessed by plating on blood agar. […] Four hours after the start of the experiment, the control strain grew from 3×10^6 to 1.2×10^7 cfu/ml. In contrast, four hours after addition of the peptide, the viable bacterial number decreased from 3×10^6 to 3×10^4 CFU/ml (10^3-fold lower than the control).
The fact that the peptide is active in the range below 1 μg/ml places the potency of its antibacterial effect in the same range as conventional antibiotics.
R6 with no peptide was the control and underwent exponential growth. […] This enhanced activity may result from an improvement in folding of the peptide or greater access to the bacterial target.

[11] = tested on: parent strain R6; assay: Antimicrobial peptide sensitivity test (growth, viability); format: cell-based, S. pneumoniae
Protocol: as §2
Cultures in the early exponential phase (10^6 cfu/ml) were treated with 0.1 mM P27 (*), 14-mer C-terminal peptide (□), 14-mer N-terminal peptide (Δ), a truncate lacking the 5C-terminal amino acids (◯) or an alternative peptide (⋄).
as §3
To determine the biological effect of P27, cultures of the parent strain R6 at an OD620nm of 0.1 were exposed to 0.1 mM of the synthetic peptide homolog P27 having the amino acid sequence of SEQ ID NO:44. […] This behavior is distinct from all other antibiotics described to date, which have a clear cut MIC.

Sequence	more bioactivity (killing in vitro) [1]	kill of a clinical pneumococcal isolate [2]	lysis of R6 under leucine deprivation [3]	chain formation [4]	bactericidal effect on Lyt-4-4 [5]	growth of clinical isolates [6]	effect on bactericidal effect of penicillin [7]	growth inhibition or cell death [8]	antibacterial activity against other species [9]	ability to inhibit R6 growth [10]	growth of R6 ([11]; 0.1 mM P27, OD620nm of 0.1)	concentrations at which a substantial loss of viability was demonstrated ([11]; R6)	inhibition of growth ([11]; R6, 50 nM P27)	dose dependence of the extent of growth inhibition ([11]; R6, 50 nM to 0.2 mM)	loss of viability ([11]; R6, 0.1 mM P27)	inhibition of growth ([11]; R6, 0.2 mM P27)
MRKEFHNVLSSDQLLTDKRPARDYNRK (Streptococcus Pneumoniae) [synthetic R6 peptide]	10-20%															
MRKEFHNVLSSGQLLADKRPARDYNRK (listed as Streptococcus pneumoniae) [Peptide P27]		greater than 2 log	neither the addition of 10×the MIC of penicillin or vancomycin nor the addition of 0.2 mM P27 resulted in lysis	reversion of the chains to diplococci	still killed by P27 but not as efficiently as R6	clear reduction in growth	potentiates the bactericidal effect of penicillin	did not result in growth inhibition or even cell death	did not show antibacterial activity	the same effect	potent growth inhibition	greater than 0.05 mM	marginal	dose dependent	2 log units	complete growth arrest
